Laboratory results: US10144737B2 (ETERNITY BIOSCIENCE INC., priority 2014, dated 2018)

Columns and labels:
Btk = biological target: T1, Btk (Homo sapiens, UniProt Q06187); test: Btk kinase assay (ADP-Glo); format: biochemical; conditions: ADP-Glo Btk kinase assay kit; ATP 1.2 μM; 60 minutes at room temperature
T1 construct: purchased Promega (Madison, Wis.)
Procedure: Btk kinase assay—The Btk kinase assay was performed using a ADP-Glo Btk kinase assay kit purchased from Promega (Madison, Wis.). The assay was conducted according to the protocols provided in the assay kit. In brief, the enzyme reaction was carried out in the kinase reaction buffer containing Btk (2 ng/μl), ATP (1.2 μM), poly GT peptide (0.3 μM), DTT (40 nM), MnCl2 (1.4 mM), and 1 xkinase buffer (included in the kit) in the presence or absence of the tested articles at various concentrations in 384-well plate at room temperature (22±1° C.) for 60 minutes. The final reaction volume for each reaction was 10 μl. Then, 4 μl of ADP-Glo reagent (included in the kit) was added into the reaction and the plate was further incubated for another 40 minutes to terminate the reaction and deplete the remaining ATP. Finally, 10 μl of the kinase detection reagent was added into each reaction to simultaneously convert ADP to ATP and allow the newly synthesized ATP to be measured by a plate-reading luminometer (Victor X5 2030 multilabel reader, PerkinElmer). IC50 value was calculated using appropriate programs in GraphPad Prism by plotting the logarithm of the concentration versus percent inhibition as compared with a vehicle (DMSO) control.

TMD-8 cells = test: Cell proliferation assay (CellTiter-Glo), TMD-8 cells; format: cell-based; conditions: Homo sapiens, TMD8, 120 h, 5-day treatment, read-out: TMD8 cell growth (GI50 μM)
Procedure: Cell proliferation assay: TMD-8 and SU-DHL-1 cells were maintained at 37° C. in a humidified atmosphere with 5% CO2 in the recommended medium and serum concentrations. For cell proliferation assay, cells were seeded in 96-well pates at a density of 5,000 to 10,000 cells per well and cultured overnight at 37° C. in recommended medium supplemented with 5-10% FBS. On the next day, the test articles at various concentrations or vehicle control (0.5% DMSO) were added into cell culture. After 5-day treatment, the growth of cells was assayed by the CellTiter-Glo® Luminestceaent Cell Viability Assay (Promega). IC50 values were calculated using GraphPad Prism by plotting the logarithm of the concentration versus percent inhibition of cell growth as compared with the vehicle control.

T1 sequence (Q06187 whole entry): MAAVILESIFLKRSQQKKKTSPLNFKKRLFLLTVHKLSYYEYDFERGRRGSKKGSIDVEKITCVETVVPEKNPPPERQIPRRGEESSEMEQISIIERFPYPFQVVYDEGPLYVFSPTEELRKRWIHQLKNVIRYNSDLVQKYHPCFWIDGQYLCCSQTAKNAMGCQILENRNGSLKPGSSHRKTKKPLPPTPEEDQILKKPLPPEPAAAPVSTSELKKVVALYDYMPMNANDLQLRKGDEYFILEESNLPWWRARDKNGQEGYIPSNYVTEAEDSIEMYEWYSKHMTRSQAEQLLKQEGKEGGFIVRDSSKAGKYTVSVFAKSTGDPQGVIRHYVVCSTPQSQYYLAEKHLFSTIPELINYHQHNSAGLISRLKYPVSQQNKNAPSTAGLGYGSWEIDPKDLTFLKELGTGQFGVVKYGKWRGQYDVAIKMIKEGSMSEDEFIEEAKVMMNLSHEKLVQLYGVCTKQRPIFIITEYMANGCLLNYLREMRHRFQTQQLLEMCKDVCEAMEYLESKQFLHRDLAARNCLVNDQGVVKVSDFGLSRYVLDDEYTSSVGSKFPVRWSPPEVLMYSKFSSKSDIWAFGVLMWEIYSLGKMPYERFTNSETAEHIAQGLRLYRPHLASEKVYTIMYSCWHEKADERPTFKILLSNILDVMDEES

`C=CC(=O)N1CCN(c2ncnc3[nH]c(C#CCOc4ccccc4)cc23)CC1` [Example 1, 1-(4-(6-(3-phenoxyprop-1-yn-1-yl)-7H-pyrrolo[2,3-d]pyrimidin-4-yl)piperazin-1-yl)prop-2-en-1-one] was tested, and the IC50 (Btk) was 109 nM and the GI50 (TMD-8 cells) was 0.054 µM.
With `CN(C)C/C=C/C(=O)N1CCN(c2ncnc3[nH]c(C#CCOc4ccccc4)cc23)CC1` [Example 2, (E)-4-(dimethylamino)-1-(4-(6-(3-phenoxyprop-1-yn-1-yl)-7H-pyrrolo[2,3-d]pyrimidin-4-yl)piperazin-1-yl)but-2-en-1-one] the IC50 (Btk) was 3.3 nM and the GI50 (TMD-8 cells) was 0.034 µM.
`CNC/C=C/C(=O)N1CCN(c2ncnc3[nH]c(C#CCOc4ccccc4)cc23)CC1` [Example 3, (E)-4-(methylamino)-1-(4-(6-(3-phenoxyprop-1-yn-1-yl)-7H-pyrrolo[2,3-d]pyrimidin-4-yl)piperazin-1-yl)but-2-en-1-one] was tested, and the IC50 (Btk) was 2.3 nM and the GI50 (TMD-8 cells) was 2.9 µM.
Work on `C=CC(=O)N1CCN(c2ncnc3[nH]c(C#CCOCc4ccccc4)cc23)CC1` [Example 4, 1-(4-(6-(3-(benzyloxy)prop-1-yn-1-yl)-7H-pyrrolo[2,3-d]pyrimidin-4-yl)piperazin-1-yl)prop-2-en-1-one] yielded an IC50 (Btk) of 60 nM and a GI50 (TMD-8 cells) of 0.157 µM.
`C=CC(=O)N1CCN(c2ncnc3[nH]c(C#CCOC)cc23)CC1` [Example 5, 1-(4-(6-(3-methoxyprop-1-yn-1-yl)-7H-pyrrolo[2,3-d]pyrimidin-4-yl)piperazin-1-yl)prop-2-en-1-one] was tested, and the IC50 (Btk) was 257 nM and the GI50 (TMD-8 cells) was 1.66 µM.
`C=CC(=O)N1CCN(c2ncnc3[nH]c(C#CCOc4ccccc4)nc23)CC1` [Example 6, 1-(4-(8-(3-phenoxyprop-1-yn-1-yl)-9H-purin-6-yl)piperazin-1-yl)prop-2-en-1-one] gave an IC50 (Btk) of 16.4 nM and a GI50 (TMD-8 cells) of 0.019 µM.
`CN(C)C/C=C/C(=O)N1CCN(c2ncnc3[nH]c(C#CCOc4ccccc4)nc23)CC1` [Example 7, (E)-4-(dimethylamino)-1-(4-(8-(3-phenoxyprop-1-yn-1-yl)-9H-purin-6-yl)piperazin-1-yl)but-2-en-1-one] showed an IC50 (Btk) of 3 nM and a GI50 (TMD-8 cells) of 0.141 µM.
Molecule `O=C(/C=C/CN1CCOCC1)N1CCN(c2ncnc3[nH]c(C#CCOc4ccccc4)nc23)CC1` [Example 8, (E)-4-morpholino-1-(4-(8-(3-phenoxyprop-1-yn-1-yl)-9H-purin-6-yl)piperazin-1-yl)but-2-en-1-one] has an IC50 (Btk) of 332 nM and a GI50 (TMD-8 cells) of 0.357 µM.
For `C=CC(=O)N1CCC(Nc2ncnc3[nH]c(C#CCOc4ccccc4)nc23)C1` (stereo not shown) [Example 9, 1-(3-((8-(3-phenoxyprop-1-yn-1-yl)-9H-purin-6-yl)amino)pyrrolidin-1-yl)prop-2-en-1-one], the IC50 (Btk) was 2.6 nM and the GI50 (TMD-8 cells) was 0.012 µM.
Work on `CN(C)C/C=C/C(=O)N1CCC(Nc2ncnc3[nH]c(C#CCOc4ccccc4)nc23)C1` (stereo not shown) [Example 10, (E)-4-(dimethylamino)-1-(3-((8-(3-phenoxyprop-1-yn-1-yl)-9H-purin-6-yl)amino)pyrrolidin-1-yl)but-2-en-1-one] yielded an IC50 (Btk) of 0.1 nM and a GI50 (TMD-8 cells) of 0.171 µM.
With `O=C(/C=C/CN1CCOCC1)N1CCC(Nc2ncnc3[nH]c(C#CCOc4ccccc4)nc23)C1` (stereo not shown) [Example 11, (E)-4-morpholino-1-(3-((8-(3-phenoxyprop-1-yn-1-yl)-9H-purin-6-yl)amino)pyrrolidin-1-yl)but-2-en-1-one] the IC50 (Btk) was 60 nM and the GI50 (TMD-8 cells) was 1.17 µM.
Molecule `O=C(/C=C/CN1CCCC1)N1CCC(Nc2ncnc3[nH]c(C#CCOc4ccccc4)nc23)C1` (stereo not shown) [Example 12, (E)-1-(3-((8-(3-phenoxyprop-1-yn-1-yl)-9H-purin-6-yl)amino)pyrrolidin-1-yl)-4-(pyrrolidin-1-yl)but-2-en-1-one] has an IC50 (Btk) of 0.3 nM and a GI50 (TMD-8 cells) of 1.3 µM.
Molecule `C=CC(=O)N1CCC(Nc2ncnc3[nH]c(C#CCOc4cccc(Cl)c4)nc23)C1` (stereo not shown) [Example 13, 1-(3-((8-(3-(3-chlorophenoxy)prop-1-yn-1-yl)-9H-purin-6-yl)amino)pyrrolidin-1-yl)prop-2-en-1-one] has an IC50 (Btk) of 1.9 nM and a GI50 (TMD-8 cells) of 0.019 µM.
With `C=CC(=O)N1CCC(Nc2ncnc3[nH]c(C#CCOc4ccc(F)c(F)c4)nc23)C1` (stereo not shown) [Example 14, 1-(3-((8-(3-(3,4-difluorophenoxy)prop-1-yn-1-yl)-9H-purin-6-yl)amino)pyrrolidin-1-yl)prop-2-en-1-one] the IC50 (Btk) was 15 nM and the GI50 (TMD-8 cells) was 0.134 µM.
For `C=CC(=O)N1CCC(Nc2ncnc3[nH]c(C#CCOc4cccc(F)c4)nc23)C1` (stereo not shown) [Example 15, 1-(3-((8-(3-(3-fluorophenoxy)prop-1-yn-1-yl)-9H-purin-6-yl)amino)pyrrolidin-1-yl)prop-2-en-1-one], the IC50 (Btk) was 14.8 nM and the GI50 (TMD-8 cells) was 0.019 µM.
Molecule `C=CC(=O)N1CCC(Nc2ncnc3[nH]c(C#CCOc4ccccc4F)nc23)C1` (stereo not shown) [Example 16, 1-(3-((8-(3-(2-fluorophenoxy)prop-1-yn-1-yl)-9H-purin-6-yl)amino)pyrrolidin-1-yl)prop-2-en-1-one] has an IC50 (Btk) of 0.6 nM and a GI50 (TMD-8 cells) of 0.003 µM.
`C=CC(=O)N1CCC(Nc2ncnc3[nH]c(C#CCOc4cc(F)cc(F)c4)nc23)C1` (stereo not shown) [Example 17, 1-(3-((8-(3-(3,5-difluorophenoxy)prop-1-yn-1-yl)-9H-purin-6-yl)amino)pyrrolidin-1-yl)prop-2-en-1-one] was tested, and the IC50 (Btk) was 212 nM and the GI50 (TMD-8 cells) was 0.25 µM.
`C=CC(=O)N1CCC(Nc2ncnc3[nH]c(C#CCOc4ccccc4Cl)nc23)C1` (stereo not shown) [Example 18, 1-(3-((8-(3-(2-chlorophenoxy)prop-1-yn-1-yl)-9H-purin-6-yl)amino)pyrrolidin-1-yl)prop-2-en-1-one] gave an IC50 (Btk) of 0.02 nM and a GI50 (TMD-8 cells) of 0.002 µM.
`C=CC(=O)N1CCC(Nc2ncnc3[nH]c(C#CCOc4ccc(Cl)cc4)nc23)C1` (stereo not shown) [Example 19, 1-(3-((8-(3-(4-chlorophenoxy)prop-1-yn-1-yl)-9H-purin-6-yl)amino)pyrrolidin-1-yl)prop-2-en-1-one] showed an IC50 (Btk) of 22 nM and a GI50 (TMD-8 cells) of 0.148 µM.
Work on `C=CC(=O)N1CCC(Nc2ncnc3[nH]c(C#CCOc4ccc(F)cc4)nc23)C1` (stereo not shown) [Example 20, 1-(3-((8-(3-(4-fluorophenoxy)prop-1-yn-1-yl)-9H-purin-6-yl)amino)pyrrolidin-1-yl)prop-2-en-1-one] yielded an IC50 (Btk) of 0.5 nM and a GI50 (TMD-8 cells) of 0.051 µM.
For `CN(C)C/C=C/C(=O)N1CCC(Nc2ncnc3[nH]c(C#CCOc4ccc(Cl)cc4)nc23)C1` (stereo not shown) [Example 21, (E)-1-(3-((8-(3-(4-chlorophenoxy)prop-1-yn-1-yl)-9H-purin-6-yl)amino)pyrrolidin-1-yl)-4-(dimethylamino)but-2-en-1-one], the IC50 (Btk) was 4 nM and the GI50 (TMD-8 cells) was 1.8 µM.
Molecule `CN(C)C/C=C/C(=O)N1CCC(Nc2ncnc3[nH]c(C#CCOc4ccc(F)cc4)nc23)C1` (stereo not shown) [Example 22, (E)-1-(3-((8-(3-(4-fluorophenoxy)prop-1-yn-1-yl)-9H-purin-6-yl)amino)pyrrolidin-1-yl)-4-(dimethylamino)but-2-en-1-one] has an IC50 (Btk) of 0.02 nM and a GI50 (TMD-8 cells) of 1 µM.
`CN(C)C/C=C/C(=O)N1CCC(Nc2ncnc3[nH]c(C#CCOc4ccccc4F)nc23)C1` (stereo not shown) [Example 23, (E)-1-(3-((8-(3-(2-fluorophenoxy)prop-1-yn-1-yl)-9H-purin-6-yl)amino)pyrrolidin-1-yl)-4-(dimethylamino)but-2-en-1-one] showed an IC50 (Btk) of 1.5 nM and a GI50 (TMD-8 cells) of 0.107 µM.
For `C=CC(=O)N1CCC(Nc2ncnc3[nH]c(C#CCOc4ccc(F)cc4F)nc23)C1` (stereo not shown) [Example 24, 1-(3-((8-(3-(2,4-difluorophenoxy)prop-1-yn-1-yl)-9H-purin-6-yl)amino)pyrrolidin-1-yl)prop-2-en-1-one], the IC50 (Btk) was 1 nM and the GI50 (TMD-8 cells) was 0.01 µM.
`C=CC(=O)N1CCC(Nc2ncnc3[nH]c(C#CCOc4ccccc4OC)nc23)C1` (stereo not shown) [Example 25, 1-(3-((8-(3-(2-methoxyphenoxy)prop-1-yn-1-yl)-9H-purin-6-yl)amino)pyrrolidin-1-yl)prop-2-en-1-one] showed an IC50 (Btk) of 1 nM and a GI50 (TMD-8 cells) of 0.006 µM.
`C=CC(=O)N1CCC(Nc2ncnc3[nH]c(C#CCOc4cccc(OC)c4)nc23)C1` (stereo not shown) [Example 26, 1-(3-((8-(3-(3-methoxyphenoxy)prop-1-yn-1-yl)-9H-purin-6-yl)amino)pyrrolidin-1-yl)prop-2-en-1-one] was tested, and the IC50 (Btk) was 6.5 nM and the GI50 (TMD-8 cells) was 0.247 µM.
`C=CC(=O)N1CCC(Nc2ncnc3[nH]c(C#CCOc4ccc(OC)cc4)nc23)C1` (stereo not shown) [Example 27, 1-(3-((8-(3-(4-methoxyphenoxy)prop-1-yn-1-yl)-9H-purin-6-yl)amino)pyrrolidin-1-yl)prop-2-en-1-one] gave an IC50 (Btk) of 16 nM and a GI50 (TMD-8 cells) of 0.094 µM.
In the case of `O=C(/C=C/c1cccs1)N1CCC(Nc2ncnc3[nH]c(C#CCOc4ccccc4)cc23)C1` (stereo not shown) [Example 37, (E)-1-(3-((6-(3-phenoxyprop-1-yn-1-yl)-7H-pyrrolo[2,3-d]pyrimidin-4-yl)amino)pyrrolidin-1-yl)-3-(thiophen-2-yl)prop-2-en-1-one], the IC50 (Btk) is reported as 1180 nM.
